Data published in patent US20160242450A1, “Functional-gel Compositions and Methods” (priority 2014, published 2016).

Experiment: Energy intake and weight loss rodent study, preloads before high fat diet (Experiment 2)
Assay type: in vivo
Settings: mice on high fat diet, daily preload one hour before diet
Text: Fifteen adult female feeder mice were preconditioned for 15 days on a […]. PicoLab Rodent diet 20 was supplemented to […] by adding a mixture of fats consisting of (38% butter, 30% shortening, 23% lard, and 8% canola oil). High fat diet was provided ad libitum. After the pre-conditioning period mice were assigned to one of four groups ([…]) to generate similar mean body weights between groups as described below. Mice were given control or test article preloads one hour prior to receiving ad libitum high fat diet on a daily basis, mice received high fat diet at ad libitum over night (rodent active period of the day) and were fasted during day time hours (the rodent dormant period of the day). Body weights were obtained on Day 15 and Day 30 post treatment initiation and data was used to calculate change in body weight from baseline, Day 0. Mean body weights (FIG. 1) and % change in body weight (FIG. 2) data is provided with corresponding SEM. Partially hydrolyzed collagen (GEL group) test article was hydrated in 10× in hot water then allowed to set to firm gel 4-8° C. overnight. Wheat Flour (FLOU group) and Psyllium (PSY group) test articles were hydrated in water. Wheat Flour was cooked via microwave for 2 min at an 800 Watt setting.

CCCCCCCCCCC[C@@H](C[C@@H]1OC(=O)[C@H]1CCCCCC)OC(=O)[C@H](CC(C)C)NC=O [ALLI, Orlistat]
Body weight change over a 30 day treatment period (FIG. 1, FIG. 2): weight loss
